Results from PubChem BioAssay (NCI).
“And” between values parts separate entries of the source, which are not always exact repeats. Equal entries are not always repeated.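 Cultured in 96-well plates, cells were exposed to test compound for 48 hours across five concentrations. Here, GI50 denotes the concentration required for 50% inhibition of growth. Definition used: TGI = concentration required for complete inhibition of growth.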

Tested on: MDA-MB-468 breast
Test: inhibition of tumour cell growth, NCI panel, 48 h

Row | Compound | GI50 | TGI
1 | O=C(/C=C1\C(=O)N(Cc2ccc([N+](=O)[O-])cc2)c2ccccc21)c1ccc(OCCN2CCCCC2)cc1 | 1.11 µM | 2.49 µM
2 | IP(CCCCCCCCCCSc1n(Cc2ccc3ccccc3c2)c(-c2ccccc2)c(-c2ccccc2)[n+]1Cc1ccc2ccccc2c1)(c1ccccc1)(c1ccccc1)c1ccccc1 | 0.267 µM | 0.918 µM
3 | C=CCn1c(=O)c2cnc(Nc3ccc(N4CCN(C)CC4)cc3)nc2n1-c1ccc2c(n1)[C@@](O)(CC)CC2 | 0.189 µM | 0.698 µM
4 | N#CC(C#N)=Cc1c(-c2ccccc2)[nH]c2ccccc12 | 0.955 µM | 5.21 µM
5 | COc1cc(-c2n/c(=C\c3c(O)[nH]c4ccc(Cl)cc34)cc3c2=Nc2ccccc2-3)cc(OC)c1OC | 1.73 µM | 4.26 µM
6 | CN(Cc1cnc(N)nc1N)c1ccc(C(=O)O)cc1 | > 100 µM | > 100 µM
7 | COc1cc(-c2nn(-c3ccc(NC(=O)Nc4ccc(Cl)c(Cl)c4)cc3)cc2-c2ccncc2)ccc1Cl | 2.15 µM | 5.72 µM
8 | COc1cc2ccccc2c2cc([N+](=O)[O-])oc12 | 1.03 µM | 2.36 µM
9 | O=[N+]([O-])c1cc([N+](=O)[O-])c(Cl)c(Cl)c1Cl | 0.25 µM | 0.723 µM
10 | Cc1c(C)c2c(c(C)c1NC(=O)/C=C\C(=O)O)CCC(C)(CCCC(C)CCCC(C)CCCC(C)C)O2 (stereo unspecified) | 1.99 µM | 3.98 µM
11 | NC(=O)c1cc(-c2ccncc2)cc(-c2ccccc2)c1N | 6.44 µM | > 25 µM
12 | COc1ccc2c(c1)[C@]1(C[C@H]1c1ccc3c(/C=C/c4ccc(CN5C[C@@H](C)O[C@@H](C)C5)cc4)n[nH]c3c1)C(=O)N2 | 2.99 µM | > 92.4 µM
13 | COc1cccc(C(=O)Nc2ccc(CN3CCc4nc5cc(OC)c(OC)cc5cc43)cc2)c1 | 4.01 µM | 31.9 µM
14 | C=C1C(=O)O[C@H]2[C@H]1CC/C(Cn1cc(CNCCc3c[nH]c4ccc(Cl)cc34)nn1)=C\CC[C@@]1(C)O[C@@H]21 | 2.19 µM | 9.19 µM
15 | COc1ccc(Cl)cc1Nc1nc(C(F)(F)F)ccc1C(=O)N/N=C/c1ccc([N+](=O)[O-])cc1 | 1.13 µM | 3.68 µM
16 | CN1CCN(CCCOc2cccc3nc(Nc4ccc(Cl)c(F)c4)ccc23)CC1 | 1.72 µM | 3.32 µM
17 | COc1cc(/C=C/C(=O)c2cc(OC)c(OC)c(OC)c2)ccc1Oc1nc(NCCO)nc(N2CCOCC2)n1 | 1.71 µM | 4.3 µM
18 | Cc1cc2cccnc2c2ncccc12 | 2.03 µM | 5.48 µM
19 | CN1CCN(c2ccc(-c3ccc4ncc(C#N)c(Nc5ccc(F)c(Cl)c5)c4c3)cc2)CC1 | 0.431 µM | 2.1 µM
20 | O=C(Nc1ccc(F)cc1)c1cc(-c2ccc(F)cc2F)ccc1O | 2.21 µM | 7.48 µM
21 | COc1cc(NS(C)(=O)=O)ccc1Nc1c2ccccc2nc2c(C)cccc12 | 0.236 µM and 0.298 µM | 0.779 µM and 1.67 µM
22 | Cc1cc2nc(C(Cl)Cl)nc(-c3cccs3)n2n1 | 0.314 µM | 1.54 µM

Row | Compound | GI50 | TGI
23 | CC1=CC[C@@H]2C(C)(C)C(=O)CC[C@@]2(C)[C@@H]1COc1ccc2ccc(=O)oc2c1 | 4.83 µM | 35.9 µM
24 | Cn1cc(C2=C(c3c4n(c5ccccc35)CCCC4)C(=O)NC2=O)c2ccccc21 | 5.31 µM | > 25 µM
25 | O=C(CCCn1c(=O)c2sc3ccccc3c2n2nnc(-c3ccccc3)c12)NCCc1cnc[nH]1 | 1.69 µM | 3.68 µM
26 | COc1ccc(C[n+]2c3ccccc3n3c4ccc(N)cc4ccc32)c(OC)c1OC | 0.275 µM | 1.42 µM
27 | COc1cc2c(c(OC)c1OC)C(=O)CC(c1cccc(NC(=O)c3ccc(Br)cc3)c1)O2 (stereo unspecified) | 1.85 µM | 8.01 µM
28 | Oc1c(C(Nc2cccc3ccccc23)c2ccccc2)ccc2cccnc12 (stereo unspecified) | 1.79 µM | 4.31 µM
29 | COc1cc(/C=N/Nc2ncnc3c2cnn3C(C)C)ccc1O | 9.32 µM | 24.6 µM
30 | NC(C/[N+]([O-])=N/O)C(=O)O (stereo unspecified) | 7.31 µM | > 500 µM
31 | Cc1cc(Cc2cc(C)c(O)c(C)c2)cc(C)c1O | 2.55 µM | 9.75 µM
32 | CN(CCC#N)c1ccc(/C=C(\C#N)c2cccc(C(F)(F)F)c2)cc1 | 0.797 µM | > 100 µM
33 | COc1ccc(-c2nn(-c3ccc(NC(=O)c4ccc(Cl)c(C(F)(F)F)c4)cc3)cc2-c2ccncc2)cc1Cl | 1.6 µM | > 100 µM
34 | Oc1ccc(CSc2nnc(-c3ccncc3)n2-c2ccccc2)c2cccnc12 | 1.35 µM | 16.1 µM
35 | O=C(/C=C/c1ccccc1)c1c[nH]c2ccccc2c1=O | 1.8 µM | 4.41 µM
36 | O=C(/C=C/C12c3ccccc3C(c3ccccc31)C1C(=O)N(c3ccccc3)C(=O)C12)c1ccc(Cl)cc1 (stereo unspecified) | 1.88 µM | 5.87 µM
37 | Cc1ccc(NC(=O)c2ccc(CN3CCN(C)CC3)c(C(F)(F)F)c2)cc1Oc1ccc(-c2[nH]nc3ncnc(N)c23)cc1 | 12.2 µM | 43.9 µM
38 | Cc1oc2nc[nH]c(=O)c2c1C(=O)/C=C/c1ccc(Cl)cc1 | 1.38 µM | 3.87 µM
39 | CCN(CC)C(=O)CC1=C(C)/C(=C/c2[nH]c(-c3ccc[nH]3)cc2OC)N=C1C | 0.572 µM | 17.9 µM
40 | CCCCN(CCCC)c1ccc(C(=N)c2ccc(N(C)C)cc2)cc1 | 0.249 µM | 0.966 µM
41 | COc1cc(N2CCN(C(C)C)CC2)ccc1Nc1nc(Nc2cccc3ncccc23)c2cc[nH]c2n1 | 3.59 µM | 8.84 µM
42 | Cc1onc(-c2c(F)cccc2Cl)c1-c1ncc(-c2ccc(Cl)cc2)o1 | 3.49 µM | > 100 µM
43 | Cc1cc(N2CCN(C)CC2)nc(NCc2cc(Nc3ccnc4cc(Cl)ccc34)ccc2F)n1 | 1.67 µM | 3.59 µM
